Article PMC11189555, “Aryl amino acetamides prevent Plasmodium falciparum ring development via targeting the lipid-transfer protein PfSTART1” (Nature Communications, 2024)
Read-outs that look alike come from different tables or passages of the source.

Legend:
[1] = tested on: 3D7 P. falciparum parasites; test: Growth inhibition assay (72 h, LDH activity); assay type: cell-based, Plasmodium falciparum; conditions: for EC50: Plasmodium falciparum
Summary of the method: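 Synchronised ring-stage P. falciparum (0.3-0.6% parasitemia, 2% haematocrit) grown 72 h in serial compound dilutions, sometimes with 0, 0.25 or 2.5 mM glucosamine. Growth read as LDH activity (Malstat/NBT, A650) after freeze-thaw, normalised to DMSO and uninfected RBC. EC50 by nonlinear regression.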

[2] = tested on: PopE-F10 M-833 resistant clone (PfSTART1 N330K); test: Growth inhibition assay (72 h, LDH activity); assay type: cell-based, Plasmodium falciparum; set-up: sample/DMSO: scale not given here
Summary of the method: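 Synchronised ring-stage 3D7-derived clones (0.3-0.6% parasitemia, 2% haematocrit) grown 72 h in compound serial dilutions, some with 0, 0.25 or 2.5 mM glucosamine. Growth read as LDH activity after freeze-thaw (Malstat/NBT, A650), normalised to DMSO and uninfected RBC; EC50 from variable-slope log(inhibitor) fit.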

With `CN(C(=O)C(C)(C)Nc1ccc(Cl)c(S(=O)(=O)N2CCOCC2)c1)c1ccc(F)c(Cl)c1` [compound 4] the “Growth inhibition % (LDH, relative to DMSO)” value ([1]; 3D7, 0.00152416 uM, biological replicate 3 (2023-02-07)) was -17.5745, the “Growth inhibition % (LDH, relative to DMSO)” value ([1]; 3D7, 0.00304832 uM, biological replicate 1 (2021-10-25)) was -18.3864 and the “Growth inhibition % (LDH, relative to DMSO)” value ([1]; 3D7, 0.00457247 uM, biological replicate 3 (2023-02-07)) was -17.9271. For the same compound, the “Growth inhibition % (LDH, relative to DMSO)” value ([1]; 3D7, 0.00914495 uM, biological replicate 1 (2021-10-25)) was -26.0151, the “Growth inhibition % (LDH, relative to DMSO)” value ([1]; 3D7, 0.0137174 uM, biological replicate 3 (2023-02-07)) was -25.0392 and the “Growth inhibition % (LDH, relative to DMSO)” value ([1]; 3D7, 0.0274348 uM, biological replicate 1 (2021-10-25)) was -36.8606. For the same compound, the “Growth inhibition % (LDH, relative to DMSO)” value ([1]; 3D7, 0.0411523 uM, biological replicate 3 (2023-02-07)) was -21.1207, the “Growth inhibition % (LDH, relative to DMSO)” value ([1]; 3D7, 0.078125 uM, biological replicate 2 (2023-02-07)) was -4.3247 and the “Growth inhibition % (LDH, relative to DMSO)” value ([1]; 3D7, 0.0823045 uM, biological replicate 1 (2021-10-25)) was -42.8019. The “Growth inhibition % (LDH, relative to DMSO)” value ([1]; 3D7, 0.123457 uM, biological replicate 3 (2023-02-07)) was -34.2281, the “Growth inhibition % (LDH, relative to DMSO)” value ([1]; 3D7, 0.15625 uM, biological replicate 2 (2023-02-07)) was -4.463 and the “Growth inhibition % (LDH, relative to DMSO)” value ([1]; 3D7, 0.246914 uM, biological replicate 1 (2021-10-25)) was -45.3858. For the same compound, the “Growth inhibition % (LDH, relative to DMSO)” value ([1]; 3D7, 0.3125 uM, biological replicate 2 (2023-02-07)) was -3.423, the “Growth inhibition % (LDH, relative to DMSO)” value ([1]; 3D7, 0.37037 uM, biological replicate 3 (2023-02-07)) was -26.6654 and the “Growth inhibition % (LDH, relative to DMSO)” value ([1]; 3D7, 0.625 uM, biological replicate 2 (2023-02-07)) was -4.556. For the same compound, the “Growth inhibition % (LDH, relative to DMSO)” value ([1]; 3D7, 0.740741 uM, biological replicate 1 (2021-10-25)) was -43.9445, the “Growth inhibition % (LDH, relative to DMSO)” value ([1]; 3D7, 1.11111 uM, biological replicate 3 (2023-02-07)) was -37.6176 and the “Growth inhibition % (LDH, relative to DMSO)” value ([1]; 3D7, 1.25 uM, biological replicate 2 (2023-02-07)) was 10.8002. The “Growth inhibition % (LDH, relative to DMSO)” value ([1]; 3D7, 2.22222 uM, biological replicate 1 (2021-10-25)) was -10.0721, the “Growth inhibition % (LDH, relative to DMSO)” value ([1]; 3D7, 2.5 uM, biological replicate 2 (2023-02-07)) was 18.1545 and the “Growth inhibition % (LDH, relative to DMSO)” value ([1]; 3D7, 3.33333 uM, biological replicate 3 (2023-02-07)) was -31.3871. The “Growth inhibition % (LDH, relative to DMSO)” value ([1]; 3D7, 5 uM, biological replicate 2 (2023-02-07)) was 37.6735, the “Growth inhibition % (LDH, relative to DMSO)” value ([1]; 3D7, 6.66667 uM, biological replicate 1 (2021-10-25)) was 35.3489 and the “Growth inhibition % (LDH, relative to DMSO)” value ([1]; 3D7, 10 uM, biological replicate 2 (2023-02-07)) was 60.2451. The “Growth inhibition % (LDH, relative to DMSO)” value ([1]; 3D7, 10 uM, biological replicate 3 (2023-02-07)) was 26.4107, the “Growth inhibition % (LDH, relative to DMSO)” value ([1]; 3D7, 20 uM, biological replicate 1 (2021-10-25)) was 75.5669 and the “Growth inhibition % (LDH, relative to DMSO)” value ([1]; 3D7, 20 uM, biological replicate 2 (2023-02-07)) was 87.1878. For the same compound, the EC50 ([1]; 3D7, 72 h, Supplementary Table 1, 3D7, 72 h, read-out: EC50) was 10 µM, the EC50 ([1]; 3D7, Fig 4A, 3D7 parasites, read-out: Pf 3D7 EC50 (SD)) was over 10 µM and the EC50 ([2]; Plasmodium falciparum, 72 h, Supplementary Table 1, PopE-F10 (N330K)) was 13.8 µM. For the same compound, the “resistance of the line compared with 3D7” value ([2]; PopE-F10 (N330K), Fig 4B) was “No change in EC50”, the sample/DMSO ([2]; PopE-F10, 0.00152416 uM, biological replicate 3) was -10.997 and the sample/DMSO ([2]; PopE-F10, 0.00304832 uM, biological replicate 1) was -14.4828. It also gave a sample/DMSO ([2]; PopE-F10, 0.00457247 uM, biological replicate 3) of -14.249, a sample/DMSO ([2]; PopE-F10, 0.00914495 uM, biological replicate 1) of -25.5172 and a sample/DMSO ([2]; PopE-F10, 0.0137174 uM, biological replicate 3) of -22.0582. It also gave a sample/DMSO ([2]; PopE-F10, 0.0274348 uM, biological replicate 1) of -44.0394, a sample/DMSO ([2]; PopE-F10, 0.0411523 uM, biological replicate 3) of -25.9307 and a sample/DMSO ([2]; PopE-F10, 0.078125 uM, biological replicate 2) of -21.3563. The sample/DMSO ([2]; PopE-F10, 0.0823045 uM, biological replicate 1) was -49.1626, the sample/DMSO ([2]; PopE-F10, 0.123457 uM, biological replicate 3) was -32.7771 and the sample/DMSO ([2]; PopE-F10, 0.15625 uM, biological replicate 2) was -19.0708. For the same compound, the sample/DMSO ([2]; PopE-F10, 0.246914 uM, biological replicate 1) was -58.8177, the sample/DMSO ([2]; PopE-F10, 0.3125 uM, biological replicate 2) was -21.7123 and the sample/DMSO ([2]; PopE-F10, 0.37037 uM, biological replicate 3) was -39.4309. For the same compound, the sample/DMSO ([2]; PopE-F10, 0.625 uM, biological replicate 2) was -9.966, the sample/DMSO ([2]; PopE-F10, 0.740741 uM, biological replicate 1) was -40.7882 and the sample/DMSO ([2]; PopE-F10, 1.11111 uM, biological replicate 3) was -43.6671. For the same compound, the sample/DMSO ([2]; PopE-F10, 1.25 uM, biological replicate 2) was -1.293, the sample/DMSO ([2]; PopE-F10, 2.22222 uM, biological replicate 1) was -40.4926 and the sample/DMSO ([2]; PopE-F10, 2.5 uM, biological replicate 2) was 7.269. It also gave a sample/DMSO ([2]; PopE-F10, 3.33333 uM, biological replicate 3) of -37.5053, a sample/DMSO ([2]; PopE-F10, 5 uM, biological replicate 2) of 28.3814 and a sample/DMSO ([2]; PopE-F10, 6.66667 uM, biological replicate 1) of -11.4286. The sample/DMSO ([2]; PopE-F10, 10 uM, biological replicate 2) was 46.5155, the sample/DMSO ([2]; PopE-F10, 10 uM, biological replicate 3) was 5.884 and the sample/DMSO ([2]; PopE-F10, 20 uM, biological replicate 1) was 42.9557. The sample/DMSO ([2]; PopE-F10, 20 uM, biological replicate 2) was 83.0461 and the “Fold change compared to 3D7” value ([2]; Supplementary Table 1, EC50 on PopE-F10 vs 3D7) was 1.4 fold.
